Measurements published in ChEMBL document CHEMBL1157748, “4-hydroxy-1,2,5-oxadiazol-3-yl moiety as bioisoster of the carboxy function. Synthesis, ionization constants, and molecular pharmacological characterization at ionotropic glutamate receptors of compounds related to glutamate and its homologues” (J Med Chem, 2010).
Values belong to the compound of their own block, whether it stands above or below them. Active and inactive are the calls of the source. No cut-off for these calls is given here.

What was measured:
[1] = Displacement of [3H]AMPA from AMPA receptor in Sprague-Dawley rat brain membranes; format: cell membranes, Membrane
[2] = target: T1, Glutamate NMDA receptor; Grin1/Grin2a (Rattus norvegicus) (UniProt P35439+Q00959); experiment: Agonist activity at rat NR1/NR2A receptor expressed in BHK21 cells assessed as increase in intracellular calcium levels by FLIPR assay; conditions: BHK-21
Glutamate NMDA receptor [3] = experiment: Displacement of [3H]CGP39653 from NMDA receptor in Sprague-Dawley rat brain membranes; format: cell membranes, Membrane
Glutamate receptor 2 [4] = target: Glutamate receptor 2 (Rattus norvegicus, UniProt P19491); experiment: Displacement of [3H]AMPA from rat iGluR2 receptor expressed in Sf9 cells baculovirus system after 1 to 2 hrs by liquid scintillation counting
[5] = target: T2, Glutamate NMDA receptor; Grin1/Grin2a (Rattus norvegicus, UniProt P35439+Q00959); experiment: Agonist activity at rat NR1/NR2A receptor expressed in BHK21 cells assessed as change in intracellular calcium levels by FLIPR assay; format: functional, cell-based, BHK-21
[6] = target: Glutamate receptor ionotropic, kainate 3 (Rattus norvegicus, UniProt P42264); experiment: Displacement of [3H]SYM2081 from rat iGluR7 receptor expressed in Sf9 cells baculovirus system after 1 to 2 hrs by liquid scintillation counting
[7] = target: Glutamate receptor ionotropic, kainate 2 (Rattus norvegicus, UniProt P42260); experiment: Displacement of [3H]SYM2081 from rat iGluR6 receptor expressed in Sf9 cells baculovirus system after 1 to 2 hrs by liquid scintillation counting
Glutamate receptor 2 [8] = target: Glutamate receptor 2 (Homo sapiens, UniProt P42262); experiment: Activity at recombinant iGluR2 receptor expressed in Xenopus laevis oocytes using holding potential of -15 to -20 mV by TEVC electrophysiology; format: cell-based, Oocyte
[9] = target: Glutamate receptor ionotropic, kainate 1 (Rattus norvegicus, UniProt P22756); experiment: biochemical
Description: Displacement of [3H]SYM2081 from rat iGluR5 receptor expressed in Sf9 cells baculovirus system after 1 to 2 hrs by liquid scintillation counting

Glutamate NMDA receptor [10] = experiment: Displacement of [3H]CPP from NMDA receptor in Sprague-Dawley rat brain membranes; format: cell membranes, Membrane
[11] = target: T2, Glutamate NMDA receptor; Grin1/Grin2a; experiment: Antagonist activity at rat NR1/NR2A receptor expressed in BHK21 cells assessed as inhibition of (S)-Glu-induced intracellular calcium levels by FLIPR assay; format: functional, cell-based, BHK-21
[12] = target: T2, Glutamate NMDA receptor; Grin1/Grin2a; experiment: Agonist activity at rat NR1/NR2A receptor expressed in BHK21 cells assessed as change in intracellular calcium levels at 1000 uM by FLIPR assay; format: functional, cell-based; conditions: bhk-21
[13] = target: T1, Glutamate NMDA receptor; Grin1/Grin2a (Rattus norvegicus); experiment: Agonist activity at rat NR1/NR2A receptor expressed in BHK21 cells assessed as change in intracellular calcium levels by FLIPR assay relative to (S)-Glu; format: functional, cell-based; conditions: BHK-21

Chain of Glutamate receptor ionotropic, kainate 1 (P22756 whole entry): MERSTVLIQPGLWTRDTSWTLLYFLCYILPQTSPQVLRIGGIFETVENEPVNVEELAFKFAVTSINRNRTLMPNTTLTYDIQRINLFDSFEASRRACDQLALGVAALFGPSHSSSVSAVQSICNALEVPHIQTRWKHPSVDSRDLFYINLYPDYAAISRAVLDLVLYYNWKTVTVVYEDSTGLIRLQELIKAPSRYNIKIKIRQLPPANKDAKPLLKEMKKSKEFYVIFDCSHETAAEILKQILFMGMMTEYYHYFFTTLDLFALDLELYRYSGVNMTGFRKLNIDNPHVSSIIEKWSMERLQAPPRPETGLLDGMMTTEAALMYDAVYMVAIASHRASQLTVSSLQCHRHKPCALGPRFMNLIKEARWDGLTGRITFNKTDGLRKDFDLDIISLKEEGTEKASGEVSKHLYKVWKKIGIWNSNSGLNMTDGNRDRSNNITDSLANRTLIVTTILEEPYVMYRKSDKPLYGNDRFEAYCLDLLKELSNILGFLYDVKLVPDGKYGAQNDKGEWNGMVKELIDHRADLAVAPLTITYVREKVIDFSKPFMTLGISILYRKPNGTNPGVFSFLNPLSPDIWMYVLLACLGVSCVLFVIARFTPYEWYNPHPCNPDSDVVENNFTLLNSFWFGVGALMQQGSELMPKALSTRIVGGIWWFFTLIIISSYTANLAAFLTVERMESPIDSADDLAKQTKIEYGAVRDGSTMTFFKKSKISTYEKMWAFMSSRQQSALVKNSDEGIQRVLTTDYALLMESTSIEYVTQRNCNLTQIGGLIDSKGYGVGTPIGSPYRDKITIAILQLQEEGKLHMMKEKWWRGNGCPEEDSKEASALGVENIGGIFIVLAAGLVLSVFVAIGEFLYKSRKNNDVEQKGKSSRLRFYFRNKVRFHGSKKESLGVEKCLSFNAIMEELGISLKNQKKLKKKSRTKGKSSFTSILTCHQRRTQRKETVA
Chain of Glutamate receptor 2 (Homo sapiens, UniProt P42262) (P42262 whole entry): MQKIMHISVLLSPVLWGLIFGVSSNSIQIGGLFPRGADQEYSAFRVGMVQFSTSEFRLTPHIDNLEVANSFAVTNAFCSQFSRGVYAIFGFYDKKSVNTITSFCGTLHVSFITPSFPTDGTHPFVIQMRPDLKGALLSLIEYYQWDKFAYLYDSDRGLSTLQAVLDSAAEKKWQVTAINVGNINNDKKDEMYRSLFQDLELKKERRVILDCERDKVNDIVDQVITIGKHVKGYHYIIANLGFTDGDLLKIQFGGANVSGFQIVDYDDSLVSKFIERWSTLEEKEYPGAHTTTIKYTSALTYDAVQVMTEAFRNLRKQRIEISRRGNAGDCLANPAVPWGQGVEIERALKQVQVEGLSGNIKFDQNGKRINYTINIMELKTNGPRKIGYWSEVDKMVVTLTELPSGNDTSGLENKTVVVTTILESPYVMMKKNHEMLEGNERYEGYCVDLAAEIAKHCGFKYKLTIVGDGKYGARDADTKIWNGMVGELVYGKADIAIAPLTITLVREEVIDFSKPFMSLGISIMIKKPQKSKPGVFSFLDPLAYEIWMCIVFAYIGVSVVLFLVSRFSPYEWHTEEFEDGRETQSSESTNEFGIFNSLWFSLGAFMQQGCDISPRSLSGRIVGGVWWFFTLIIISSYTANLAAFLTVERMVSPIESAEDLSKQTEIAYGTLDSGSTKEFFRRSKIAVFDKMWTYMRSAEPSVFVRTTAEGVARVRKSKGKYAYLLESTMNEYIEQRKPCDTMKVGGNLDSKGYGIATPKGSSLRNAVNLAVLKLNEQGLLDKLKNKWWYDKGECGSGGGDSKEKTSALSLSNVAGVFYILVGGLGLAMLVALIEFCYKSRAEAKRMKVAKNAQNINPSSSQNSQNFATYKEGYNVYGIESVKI
Chain of Glutamate receptor ionotropic, kainate 2 (P42260 whole entry): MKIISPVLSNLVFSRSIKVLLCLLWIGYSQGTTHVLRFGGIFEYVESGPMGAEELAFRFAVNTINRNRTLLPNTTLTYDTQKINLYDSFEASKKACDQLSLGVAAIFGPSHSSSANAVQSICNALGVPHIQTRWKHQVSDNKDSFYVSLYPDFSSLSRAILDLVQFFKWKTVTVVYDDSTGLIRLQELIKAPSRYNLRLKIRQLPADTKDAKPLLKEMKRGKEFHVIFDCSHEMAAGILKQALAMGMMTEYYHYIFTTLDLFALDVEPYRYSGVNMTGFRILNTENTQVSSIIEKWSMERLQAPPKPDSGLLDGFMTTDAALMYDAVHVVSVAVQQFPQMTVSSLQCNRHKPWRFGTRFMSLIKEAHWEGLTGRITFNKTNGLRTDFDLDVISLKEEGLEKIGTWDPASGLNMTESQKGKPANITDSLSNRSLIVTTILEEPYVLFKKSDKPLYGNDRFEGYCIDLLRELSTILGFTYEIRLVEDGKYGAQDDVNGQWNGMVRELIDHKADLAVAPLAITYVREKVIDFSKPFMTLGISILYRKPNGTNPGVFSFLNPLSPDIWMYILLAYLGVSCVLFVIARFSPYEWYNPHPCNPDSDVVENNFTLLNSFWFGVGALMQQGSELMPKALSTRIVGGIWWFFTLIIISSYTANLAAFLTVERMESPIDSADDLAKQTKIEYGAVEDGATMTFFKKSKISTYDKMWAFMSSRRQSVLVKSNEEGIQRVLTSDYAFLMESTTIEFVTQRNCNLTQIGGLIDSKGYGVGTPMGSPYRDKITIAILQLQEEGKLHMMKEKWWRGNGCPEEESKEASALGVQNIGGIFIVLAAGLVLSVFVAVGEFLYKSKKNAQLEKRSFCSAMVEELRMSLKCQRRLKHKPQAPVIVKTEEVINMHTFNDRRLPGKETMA
Chain of Glutamate receptor ionotropic, kainate 3 (P42264 whole entry): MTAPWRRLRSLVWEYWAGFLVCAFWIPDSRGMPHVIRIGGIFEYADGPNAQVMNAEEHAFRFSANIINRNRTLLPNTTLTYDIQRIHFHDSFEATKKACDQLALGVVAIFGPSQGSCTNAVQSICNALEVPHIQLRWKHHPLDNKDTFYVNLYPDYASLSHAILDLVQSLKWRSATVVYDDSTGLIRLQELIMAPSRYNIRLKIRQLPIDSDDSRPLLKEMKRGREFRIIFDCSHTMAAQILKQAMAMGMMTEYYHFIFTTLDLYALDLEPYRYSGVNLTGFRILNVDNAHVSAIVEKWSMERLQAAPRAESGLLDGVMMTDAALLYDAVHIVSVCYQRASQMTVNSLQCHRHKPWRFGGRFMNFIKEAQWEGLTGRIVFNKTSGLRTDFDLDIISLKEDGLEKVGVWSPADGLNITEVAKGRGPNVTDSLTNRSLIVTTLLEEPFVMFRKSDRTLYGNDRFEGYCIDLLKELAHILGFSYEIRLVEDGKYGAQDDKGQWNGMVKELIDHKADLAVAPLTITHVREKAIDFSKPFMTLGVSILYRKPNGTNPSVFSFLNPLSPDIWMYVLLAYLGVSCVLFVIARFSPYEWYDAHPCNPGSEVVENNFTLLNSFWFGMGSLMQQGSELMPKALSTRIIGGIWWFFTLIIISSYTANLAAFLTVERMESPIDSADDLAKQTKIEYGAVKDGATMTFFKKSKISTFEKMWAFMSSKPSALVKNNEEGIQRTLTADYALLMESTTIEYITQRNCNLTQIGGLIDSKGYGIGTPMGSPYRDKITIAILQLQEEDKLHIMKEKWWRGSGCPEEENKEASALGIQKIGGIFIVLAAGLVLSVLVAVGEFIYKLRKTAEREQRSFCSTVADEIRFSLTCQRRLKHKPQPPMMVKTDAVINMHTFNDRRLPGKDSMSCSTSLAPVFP
Chain of Glutamate receptor 2 (Rattus norvegicus, UniProt P19491) (P19491 whole entry): as the sequence (P42262 whole entry) above, with M191T, T291A, R764G, A852P counted along it

Compound: Cc1onc(O)c1CC(N)C(=O)O (racemic) [(R,S)-AMPA]
IC50 [1]: 0.039 µM

Compound: C=C(C)[C@H]1CN[C@H](C(=O)O)[C@H]1CC(=O)O [KAINIC ACID]
IC50 [1]: 4 µM
Ki (Glutamate NMDA receptor [3]): > 100 µM

Compound: NC(Cc1nonc1O)C(=O)O (single isomer, unassigned; (+)) [2-AMINO-3-(4-HYDROXY-1,2,5-OXADIAZOL-3-YL)PROPIONIC ACID (STRUCTURAL MIX)]
Ki (Glutamate receptor 2 [4]): 0.043 µM
EC50 [5]: 47 µM
Ki [6]: > 100 µM
Ki [7]: > 100 µM
EC50 (Glutamate receptor 2 [8]): 9.4 µM
IC50 [1]: 0.11 µM
pIC50 [1]: 6.95
Ki (Glutamate NMDA receptor [3]): 13 µM
Ki [9]: 8.1 µM

Compound: NC(Cc1nsnc1O)C(=O)O (racemic)
Ki (Glutamate NMDA receptor [10]): > 100 µM
IC50 [1]: 0.12 µM

Compound: NC(CCc1nonc1O)C(=O)O (single isomer, unassigned; (-)) [2-AMINO-4-(4-HYDROXY-1,2,5-OXADIAZOL-3-YL)BUTANOIC ACID (STRUCTURAL MIX)]
IC50 [11]: 49 µM
IC50 [1]: > 100 µM
Ki (Glutamate NMDA receptor [3]): 3.4 µM

Compound: NC(CCc1nonc1O)C(=O)O (racemic) [2-AMINO-4-(4-HYDROXY-1,2,5-OXADIAZOL-3-YL)BUTANOIC ACID (STRUCTURAL MIX)]
IC50 [1]: 77 µM
pIC50 [1]: 4.12
Ki (Glutamate NMDA receptor [3]): 4.9 µM

Compound: NC(CCc1nonc1O)C(=O)O (stereo in doubt; (+)-15) [2-AMINO-4-(4-HYDROXY-1,2,5-OXADIAZOL-3-YL)BUTANOIC ACID (STRUCTURAL MIX)]
Ki (Glutamate receptor 2 [4]): 40 µM
IC50 [11]: 1020 µM
EC50 [12]: Not Active
Ki [6]: 41 µM
Ki [7]: > 1000 µM
EC50 (Glutamate receptor 2 [8]): 489 µM
IC50 [1]: 42 µM
pIC50 [1]: 4.37
Ki (Glutamate NMDA receptor [3]): 73 µM
Ki [9]: 53 µM

Compound: NC(Cc1nonc1O)C(=O)O (single isomer, unassigned; (+))
Imax [13]: 0.76

Compound: NC(Cc1nonc1O)C(=O)O (racemic) [2-AMINO-3-(4-HYDROXY-1,2,5-OXADIAZOL-3-YL)PROPIONIC ACID (STRUCTURAL MIX)]
IC50 [1]: 0.17 µM
pIC50 [1]: 6.76
Ki (Glutamate NMDA receptor [3]): 16 µM

Compound: NC(Cc1nonc1O)C(=O)O (stereo in doubt; (-)-10) [2-AMINO-3-(4-HYDROXY-1,2,5-OXADIAZOL-3-YL)PROPIONIC ACID (STRUCTURAL MIX)]
Ki (Glutamate receptor 2 [4]): 0.25 µM
EC50 [5]: > 500 µM
Ki ([6]; sf9): > 100 µM
Ki ([7]; sf9): > 100 µM
EC50 (Glutamate receptor 2 [8]): 43 µM
IC50 [1]: 0.76 µM
Ki (Glutamate NMDA receptor [3]): > 100 µM
Ki [9]: 77 µM

Now from value to compound:

Activity [2]: inactive
Compound: NC(CCCc1nonc1O)C(=O)O (racemic)

Activity [2]: inactive
Compound: NC(CCc1nonc1O)C(=O)O (racemic)

IC50 [11]: 28 µM
IC50 [1]: > 100 µM
Ki (Glutamate NMDA receptor [3]): 1.8 µM
Compound: NC(CCCc1nonc1O)C(=O)O (stereo in doubt; (-)-18) [2-AMINO-5-(4-HYDROXY-1,2,5-OXADIAZOL-3-YL)PENTANOIC ACID (STRUCTURAL MIX)]

IC50 [1]: 61 µM
pIC50 [1]: 4.22
Ki (Glutamate NMDA receptor [3]): 2.9 µM
Compound: NC(CCCc1nonc1O)C(=O)O (racemic) [2-AMINO-5-(4-HYDROXY-1,2,5-OXADIAZOL-3-YL)PENTANOIC ACID (STRUCTURAL MIX)]

IC50 [1]: > 100 µM
Ki (Glutamate NMDA receptor [3]): 6.2 µM
Compound: CN[C@H](CC(=O)O)C(=O)O [N-METHYL-D-ASPARTIC ACID (NMDA)]

IC50 [1]: > 100 µM
Ki (Glutamate NMDA receptor [3]): 6.3 µM
Compound: NC(C(=O)O)c1nonc1O (racemic)

Ki (Glutamate receptor 2 [4]): 20 µM
IC50 [11]: 245 µM
EC50 [12]: Not Active
Ki [6]: > 1000 µM
Ki [7]: > 1000 µM
EC50 (Glutamate receptor 2 [8]): 491 µM
IC50 [1]: 42 µM
pIC50 [1]: 4.37
Ki (Glutamate NMDA receptor [3]): 22 µM
Ki [9]: 67 µM
Compound: NC(CCCc1nonc1O)C(=O)O (stereo in doubt; (+)-18) [2-AMINO-5-(4-HYDROXY-1,2,5-OXADIAZOL-3-YL)PENTANOIC ACID (STRUCTURAL MIX)]
